Experimental data: publication PMC9884808, “Pharmacokinetics, tissue distribution, and antitumor activity of a novel compound, NY-2, in non-small cell lung cancer” (Frontiers in Pharmacology, 2023)

Assays:
[1] = Stability of plasma samples (LC-MS/MS method validation); format: in vitro ADME, rat; conditions: room temperature 12 h, auto-sampler 4°C 3 days, -20°C 14 days, three freeze-thaw cycles
From the text: We used the online ADME prediction tool Swiss AMDE (http://www.swissadme.ch/index.php) (SwissADME, 2017) to analyze the physicochemical descriptors and ADME parameters of NY-2 and ZLDI-8, to predict their pharmacokinetic properties, drug-like nature, and medicinal chemistry. […] Male Sprague-Dawley rats weighing 240 ± 20 g were purchased from Liaoning Changsheng Biotechnology Co., Ltd. (Liaoning, China, animal license #SCXK-2015-0001). Rats were used for the tissue distribution and pharmacokinetics experiments because of their larger body fluid volume. The rats were fasted for 12 h before the experiment but allowed to drink water freely. […] Plasma samples were subjected to a protein precipitation method for the quantitative analysis of ZLDI-8 and NY-2 by LC-MS/MS (API 3200MD, AB Sciex, United States). […] The linear equation and correlation coefficient (r) of the regression curve were calculated from these concentrations and the corresponding […] data. The specificity, lower limit of quantification (LLOQ), linear range, precision, accuracy, matrix effects, extraction recovery, stability of analytes during the whole process of storage, as well as treatment in a biological matrix and solution were determined to verify the reliability of the compound concentrations in vivo. […]

[2] = system: A549 cells; experiment: Apoptosis, annexin-V/PI double staining; format: cell-based, human; conditions: 48 h, control 0.86 ± .05%
Procedure: For the apoptosis assay, cells were seeded into 6-well plates at 1× 10^5 cells per well, and after attachment for 4–6 h, they were incubated with different concentration of NY-2 for 48 h. After washing with 1×PBS, the cells were stained with Hoechst 33342 (5 μg/mL, 1 mL per well, C1022, Beyotime Biotechnology, China) for 20 min in a 37°C incubator followed by two washes with PBS. The number of apoptotic cells was counted under an inverted fluorescence microscope (Olympus, Japan). Apoptosis was also determined using an annexin V-FITC apoptosis detection kit (ABS50001, Absin Bioscience Inc., Shanghai, China). Cells were plated in 100 mm Petri dishes at a density of 1 × 10^6 cells/dish, after 4–6 h for attachment, cells were incubated with different concentrations of NY-2 for 48 h. For each sample, cells were harvested by trypsin digestion without EDTA and washed with 1 × PBS. Cells were resuspended in 300 μL of binding buffer, and 5 μL of annexin V-FITC solution were added and incubated at room temperature in the dark for 15 min, followed by the addition of 5 μL of propidium iodide (PI) solution. The sample staining was assessed by flow cytometry (BD Co., United States).

[3] = system: A549 cells; experiment: Transwell invasion assay; format: cell-based, human; conditions: 48 h
Procedure: For the transwell invasion assay, Matrigel (50 mg/L) was diluted 1:8 with serum-free medium, and 60 μL of diluted Matrigel was pipetted into each transwell (Corning, NY, United States) and incubated overnight. The upper chamber was seeded with 1× 10^5 cells that had been starved for 24 h in 100 µL of serum-free medium, and 700 µL of medium with 10% FBS was added to the lower compartment. After cultivation for 48 h at 37°C, the cells in the upper chamber were removed with a cotton swab, and the cells on the lower surface of the filter were fixed with methanol for 20 min and stained with 0.1% crystal violet after drying. Excess stain was eluted with 33% acetic acid, and the absorbance was measured at 490 nm.

[4] = Acute toxicity assay in KM mice; format: in vivo; conditions: tail vein injection 1000 mg/kg in saline, 10 days observation, 6 animals per group
Procedure: An acute toxicity assay was assessed in KM mice by tail vein injection of NY-2 dissolved in saline at a dose of 1000 mg/kg (6 animals per group).

[5] = system: A549 cells; experiment: Colony formation assay; format: cell-based, human; conditions: 2.5, 5, 10 μM; 9 days of growth
[6] = system: A549 cells; experiment: LDH activity assay; format: cell-based, human; conditions: 48 h, increasing concentrations, vs control
Procedure: Cell viability was measured by the MTT assay. HCT116, HL7702, A549, H1993, HCC827, and H460 cells were dispensed into 96-well plates at a density of 1 × 10^5 cells/mL. After 24–48 h incubation, cells were treated with the compounds at different concentrations for the indicated periods. An assay kit (WLA073, Wanlei Co., Liaoning, China), was used according to the manufacturer’s instructions to measure LDH activity, The absorbance at 450 nm was measured with a microplate reader (Elx-800, Bio-Rad, China).

SMILES	stability of plasma samples [1]	percentage of A549 cells in apoptosis ([2]; 5 μM)	percentage of A549 cells in apoptosis ([2]; 10 μM)	invasion of A549 cells [3]	deaths in acute toxicity assay [4]	colony formation of A549 cells [5]	LDH activity in cell culture supernatants [6]
Cc1c(C=C2C(=O)NC(=S)NC2=O)c2ccccc2n1CCOc1ccc(F)cc1 [NY-2]	stable under a variety of analytical conditions	5.45 ± 3.28%	20.29 ± 3.11%	inhibit the invasion and migration of A549 cells in a concentration-dependent manner	no deaths occurred	inhibit colony formation of A549 cells in a concentration-dependent manner	increased in a concentration-dependent manner
Cc1ccc(OCCn2c(C)c(C=C3C(=O)NC(=S)NC3=O)c3ccccc32)c(C)c1 [ZLDI-8, reference compound]	stable under a variety of analytical conditions						
